Measured values published in patent publication US11795460B2, “Compositions and methods for TTR gene editing and treating ATTR amyloidosis” (Intellia Therapeutics, Inc., priority 2017, dated 2023).

System: TTR
Experiment: TTR editing in HUH7 cells transfected with Spy Cas9 mRNA and dgRNAs (Table 5)
Format: cell-based, human
Conditions: HUH7 cells co-transfected with Spy Cas9 mRNA (SEQ ID NO:2) and dgRNAs
How it was run: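 Percent editing is the share of NGS reads at the TTR target carrying insertions, deletions or substitutions, from amplicon sequencing of genomic DNA harvested at 24, 48 or 72 h. HUH7 cells first received Cas9 mRNA (100 ng) by lipofection, then dual-guide RNA (crRNA and tracer, 25 nM each).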

Row | Sequence | Avg % Deletion [%] | Avg % Edit [%] | Avg % Insert [%]
1 | GCAUGGGCUCACAACUGAGG (tested as dual guide RNA, chemistry not given here) [CR003362] | 23.76 | 26.43 | 3.43
2 | GCCGUGGUGGAAUAGGAGUA (tested as dual guide RNA, chemistry not given here) [CR003387] | 25.55 | 25.64 | 0.23
3 | GCGGCAAUGGUGUAGCGGCG (tested as dual guide RNA, chemistry not given here) [CR003377] | 29.89 | 34.93 | 5.59
4 | GCUGCAUGGGCUCACAACUG (tested as dual guide RNA, chemistry not given here) [CR003361] | 22.44 | 28.68 | 6.84
5 | GGAGUAGGGGCUCAGCAGGG (tested as dual guide RNA, chemistry not given here) [CR003382] | 34.47 | 34.47 | 0.14
6 | GGCUGUCGUCACCAAUCCCA (tested as dual guide RNA, chemistry not given here) [CR003391] | 59.70 | 61.31 | 2.10
7 | GGGAUUGGUGACGACAGCCG (tested as dual guide RNA, chemistry not given here) [CR003390] | 16.49 | 18.97 | 3.31
8 | GUGAGUCUGGAGAGCUGCAU (tested as dual guide RNA, chemistry not given here) [CR003360] | 55.13 | 58.62 | 5.01
9 | UACUCACCUCUGCAUGCUCA (tested as dual guide RNA, chemistry not given here) [CR003372] | 17.25 | 21.52 | 4.89
10 | UCUAGAACUUUGACCAUCAG (tested as dual guide RNA, chemistry not given here) [CR003345] | 32.18 | 72.43 | 41.33
11 | UGGACUGGUAUUUGUGUCUG (tested as dual guide RNA, chemistry not given here) [CR003340] | 14.23 | 46.93 | 33.33
12 | UGUAGAAGGGAUAUACAAAG (tested as dual guide RNA, chemistry not given here) [CR003365] | 43.82 | 60.68 | 17.77
13 | UUCUUUGGCAACUUACCCAG (tested as dual guide RNA, chemistry not given here) [CR003357] | 30.82 | 36.31 | 6.37
14 | UUUGACCAUCAGAGGACACU (tested as dual guide RNA, chemistry not given here) [CR003344] | 54.40 | 64.02 | 10.76
